In ChEMBL document CHEMBL4699557, “Structure activity relationship of novel antiviral nucleosides against Enterovirus A71” (Bioorg Med Chem Lett, 2020):

Columns and labels:
Enterovirus A71 [1] = assay: microbe, parasite or virus in culture; format: functional, organism-based, Tainin/4643/98, Vero 76; conditions: Enterovirus A, Tainin/4643/98, Vero 76, 72 h
Enterovirus A71 [2] = assay: microbe, parasite or virus in culture; format: functional, organism-based; conditions: Enterovirus A, Tainin/4643/98, Vero 76, 72 h
in vitro [3] = conditions: monkey, Vero 76 cells
in vitro [4] = conditions: monkey, Vero 76 cells; remark: listed apart in the source
Vero 76 [5] = assay: Cytotoxicity against monkey Vero 76 cells by neutral red uptake assay; format: cell-based; conditions: chlorocebus sabaeus, vero 76
Vero 76 [6] = assay: Cytotoxicity against monkey Vero 76 cells by microscopic analysis; format: cell-based; conditions: chlorocebus sabaeus, vero 76

Molecule OC[C@@]12C[C@@H]1[C@@H](n1cnc3c(N[C@@H](C4CCC4)C4CC4)nc(Cl)nc31)[C@H](O)[C@@H]2O has an EC50 (Enterovirus A71 [1]) of 16 µM, an EC50 (Enterovirus A71 [2]) of 8 µM and a selectivity ratio (in vitro [3]) of 1.6. For the same molecule, the selectivity ratio (in vitro [4]) was > 3.1 and the CC50 (Vero 76 [5]) was 13 µM.

With O[C@@H]1[C@H](O)[C@@H]2C[C@@H]2[C@H]1n1cnc2c(NCC(C3CC3)C3CC3)nc(Cl)nc21 the EC50 (Enterovirus A71 [1]) was > 50 µM, the EC50 (Enterovirus A71 [2]) was > 10 µM and the CC50 (Vero 76 [6]) was > 50 µM. It also gave a CC50 (Vero 76 [5]) of 10 µM.

In the case of O[C@@H]1[C@H](O)[C@@H]2C[C@@H]2[C@H]1n1cnc2c(NC(C3CCC3)C3CCC3)nc(Cl)nc21, the EC50 (Enterovirus A71 [2]) is reported as > 17 µM, the CC50 (Vero 76 [6]) is reported as 16 µM and the CC50 (Vero 76 [5]) is reported as 17 µM.

In the case of OC[C@H]1O[C@@H](n2cnc3c(NC(C4CC4)C4CC4)ncnc32)[C@H](O)[C@@H]1O, the EC50 (Enterovirus A71 [1]) is reported as > 50 µM, the EC50 (Enterovirus A71 [2]) is reported as > 50 µM and the CC50 (Vero 76 [6]) is reported as > 50 µM. The CC50 (Vero 76 [5]) was > 50 µM.

With COC(=O)c1cnn(-c2nc(NC(C3CC3)C3CC3)c3ncn([C@H]4[C@H](O)[C@H](O)[C@@H]5C[C@@H]54)c3n2)c1 the EC50 (Enterovirus A71 [1]) was > 50 µM, the EC50 (Enterovirus A71 [2]) was > 50 µM and the CC50 (Vero 76 [6]) was > 50 µM. The CC50 (Vero 76 [5]) was 50 µM.

With CSC[C@@]12C[C@@H]1[C@@H](n1cnc3c(N[C@H](C(C)C)C4CC4)nc(Cl)nc31)[C@H](O)[C@@H]2O the EC50 (Enterovirus A71 [1]) was > 32 µM, the EC50 (Enterovirus A71 [2]) was 8.4 µM and the selectivity ratio (in vitro [3]) was 3.8. For the same molecule, the CC50 (Vero 76 [6]) was 32 µM and the CC50 (Vero 76 [5]) was 32 µM.

For OC[C@H]1O[C@@H](n2cnc3c(NC(C4CCC4)C4CCC4)ncnc32)[C@H](O)[C@@H]1O, the EC50 (Enterovirus A71 [1]) was > 100 µM, the EC50 (Enterovirus A71 [2]) was > 100 µM and the CC50 (Vero 76 [6]) was > 100 µM. The CC50 (Vero 76 [5]) was > 100 µM.

With CC(C)(O)[C@@H](Nc1nc(Cl)nc2c1ccn2[C@H]1[C@H](O)[C@H](O)[C@]2(CO)C[C@H]12)C1CC1 the EC50 (Enterovirus A71 [1]) was > 100 µM, the EC50 (Enterovirus A71 [2]) was > 63 µM and the CC50 (Vero 76 [6]) was > 100 µM. The CC50 (Vero 76 [5]) was 63 µM.

For NCCCNC(=O)[C@@]12C[C@@H]1[C@@H](n1cnc3c(NC(C4CC4)C4CC4)nc(Cl)nc31)[C@H](O)[C@@H]2O, the EC50 (Enterovirus A71 [1]) was > 50 µM, the EC50 (Enterovirus A71 [2]) was > 50 µM and the CC50 (Vero 76 [6]) was > 50 µM. The CC50 (Vero 76 [5]) was 50 µM.

In the case of Nc1nc(Cl)nc2c1ncn2[C@H]1[C@H](O)[C@H](O)[C@]2(CO)C[C@H]12, the EC50 (Enterovirus A71 [1]) is reported as > 50 µM, the EC50 (Enterovirus A71 [2]) is reported as > 36 µM and the CC50 (Vero 76 [6]) is reported as > 50 µM. The CC50 (Vero 76 [5]) was 36 µM.

With O[C@@H]1[C@H](O)[C@@H]2C[C@@H]2[C@H]1n1cnc2c(NC(C3CC3)C3CC3)ncnc21 the EC50 (Enterovirus A71 [1]) was > 50 µM, the EC50 (Enterovirus A71 [2]) was > 50 µM and the CC50 (Vero 76 [6]) was > 50 µM. The CC50 (Vero 76 [5]) was > 50 µM.

In the case of OC[C@@]12C[C@@H]1[C@@H](n1cnc3c(NCc4ccccc4)nc(Cl)nc31)[C@H](O)[C@@H]2O, the EC50 (Enterovirus A71 [1]) is reported as > 100 µM, the EC50 (Enterovirus A71 [2]) is reported as > 100 µM and the CC50 (Vero 76 [6]) is reported as > 100 µM. The CC50 (Vero 76 [5]) was > 100 µM.

In the case of OC[C@@]12C[C@@H]1[C@@H](n1cnc3c(NC(C4CCC4)C4CCC4)nc(Cl)nc31)[C@H](O)[C@@H]2O, the EC50 (Enterovirus A71 [1]) is reported as 16 µM, the EC50 (Enterovirus A71 [2]) is reported as > 28 µM and the selectivity ratio (in vitro [4]) is reported as 3.1. For the same molecule, the CC50 (Vero 76 [6]) was 50 µM and the CC50 (Vero 76 [5]) was 28 µM.

With CC(C)[C@@H](Nc1nc(Cl)nc2c1ncn2[C@H]1[C@H](O)[C@H](O)[C@]2(CN)C[C@H]12)C1CC1 the EC50 (Enterovirus A71 [1]) was > 32 µM, the EC50 (Enterovirus A71 [2]) was > 32 µM and the CC50 (Vero 76 [6]) was 32 µM. It also gave a CC50 (Vero 76 [5]) of 32 µM.

In the case of CC(C)(O)[C@@H](Nc1nc(Cl)nc2c1ncn2[C@H]1[C@H](O)[C@H](O)[C@]2(CO)C[C@H]12)C1CC1, the EC50 (Enterovirus A71 [1]) is reported as > 100 µM, the EC50 (Enterovirus A71 [2]) is reported as > 100 µM and the CC50 (Vero 76 [6]) is reported as > 100 µM. The CC50 (Vero 76 [5]) was > 100 µM.

For O[C@@H]1[C@H](O)[C@@H]2C[C@@H]2[C@H]1n1ccc2c(NC(C3CC3)C3CC3)nc(I)nc21, the EC50 (Enterovirus A71 [1]) was > 100 µM, the EC50 (Enterovirus A71 [2]) was 32 µM and the selectivity ratio (in vitro [3]) was 1.4. It also gave a CC50 (Vero 76 [6]) of 100 µM and a CC50 (Vero 76 [5]) of 44 µM.

With CC(C)C(Nc1nc(Cl)nc2c1ncn2[C@H]1[C@H](O)[C@H](O)[C@]2(CO)C[C@H]12)C(C)C the EC50 (Enterovirus A71 [1]) was 32 µM, the EC50 (Enterovirus A71 [2]) was 32 µM and the CC50 (Vero 76 [6]) was > 100 µM. The CC50 (Vero 76 [5]) was > 100 µM.

With CCOC(=O)[C@@]12C[C@@H]1[C@@H](n1cnc3c(NC(C4CC4)C4CC4)nc(Cl)nc31)[C@H](O)[C@@H]2O the EC50 (Enterovirus A71 [1]) was > 50 µM, the EC50 (Enterovirus A71 [2]) was > 1.5 µM and the CC50 (Vero 76 [6]) was > 50 µM. For the same molecule, the CC50 (Vero 76 [5]) was 1.5 µM.

In the case of O[C@@H]1[C@H](O)[C@@H]2C[C@@H]2[C@H]1n1cnc2c(NCc3ccccc3F)nc(Cl)nc21, the EC50 (Enterovirus A71 [1]) is reported as > 50 µM, the EC50 (Enterovirus A71 [2]) is reported as > 23 µM and the CC50 (Vero 76 [6]) is reported as > 50 µM. The CC50 (Vero 76 [5]) was 23 µM.

For OC[C@H]1O[C@@H](n2cnc3c(NC(C4CCC4)C4CCC4)nc(Cl)nc32)[C@H](O)[C@@H]1O, the EC50 (Enterovirus A71 [1]) was > 32 µM, the EC50 (Enterovirus A71 [2]) was > 27 µM and the CC50 (Vero 76 [6]) was 32 µM. For the same molecule, the CC50 (Vero 76 [5]) was 27 µM.

With CC[C@H](Nc1nc(Cl)nc2c1ncn2[C@H]1[C@H](O)[C@H](O)[C@]2(CO)C[C@H]12)C1CC1 the EC50 (Enterovirus A71 [2]) was 5.3 µM, the selectivity ratio (in vitro [3]) was > 9.4 and the selectivity ratio (in vitro [4]) was > 3.1. For the same molecule, the CC50 (Vero 76 [6]) was > 50 µM and the CC50 (Vero 76 [5]) was > 50 µM.

For CSc1nc(N[C@@H](C2CC2)C(C)(C)O)c2ccn([C@H]3[C@H](O)[C@H](O)[C@]4(CO)C[C@H]34)c2n1, the EC50 (Enterovirus A71 [1]) was > 100 µM, the EC50 (Enterovirus A71 [2]) was > 100 µM and the CC50 (Vero 76 [6]) was > 100 µM. For the same molecule, the CC50 (Vero 76 [5]) was > 100 µM.

In the case of CC(C)(C)[C@H](Nc1nc(Cl)nc2c1ncn2[C@H]1[C@H](O)[C@H](O)[C@]2(CO)C[C@H]12)C1CC1, the EC50 (Enterovirus A71 [1]) is reported as 32 µM, the EC50 (Enterovirus A71 [2]) is reported as 31 µM and the CC50 (Vero 76 [6]) is reported as > 100 µM. For the same molecule, the CC50 (Vero 76 [5]) was > 100 µM.

In the case of NCCNC(=O)[C@@]12C[C@@H]1[C@@H](n1cnc3c(NC(C4CC4)C4CC4)nc(Cl)nc31)[C@H](O)[C@@H]2O, the EC50 (Enterovirus A71 [1]) is reported as > 50 µM, the EC50 (Enterovirus A71 [2]) is reported as > 50 µM and the CC50 (Vero 76 [6]) is reported as > 50 µM. It also gave a CC50 (Vero 76 [5]) of 50 µM.

For O[C@@H]1[C@H](O)[C@@H]2C[C@@H]2[C@H]1n1cnc2c(NC(C3CC3)C3CC3)nc(I)nc21, the EC50 (Enterovirus A71 [1]) was > 50 µM, the EC50 (Enterovirus A71 [2]) was > 50 µM and the CC50 (Vero 76 [6]) was > 50 µM. It also gave a CC50 (Vero 76 [5]) of 50 µM.

With NNc1nc(NC(C2CC2)C2CC2)c2ncn([C@H]3[C@H](O)[C@H](O)[C@@H]4C[C@@H]43)c2n1 the EC50 (Enterovirus A71 [1]) was > 50 µM, the EC50 (Enterovirus A71 [2]) was > 50 µM and the CC50 (Vero 76 [6]) was > 50 µM. The CC50 (Vero 76 [5]) was 50 µM.

In the case of NC(=O)c1ncn([C@H]2[C@H](O)[C@H](O)[C@]3(CO)C[C@H]23)n1, the EC50 (Enterovirus A71 [1]) is reported as > 50 µM, the EC50 (Enterovirus A71 [2]) is reported as > 50 µM and the CC50 (Vero 76 [6]) is reported as > 50 µM. The CC50 (Vero 76 [5]) was > 50 µM.

In the case of CC[C@@H](Nc1nc(SC)nc2c1ccn2[C@H]1[C@H](O)[C@H](O)[C@]2(CO)C[C@H]12)C1CC1, the EC50 (Enterovirus A71 [2]) is reported as 2.3 µM, the selectivity ratio (in vitro [3]) is reported as > 22 and the selectivity ratio (in vitro [4]) is reported as > 3.1. The CC50 (Vero 76 [6]) was > 50 µM and the CC50 (Vero 76 [5]) was > 50 µM.

With O=C(O)[C@@]12C[C@@H]1[C@@H](n1cnc3c(NC(C4CC4)C4CC4)nc(Cl)nc31)[C@H](O)[C@@H]2O the EC50 (Enterovirus A71 [1]) was > 50 µM, the EC50 (Enterovirus A71 [2]) was > 50 µM and the CC50 (Vero 76 [6]) was > 50 µM. It also gave a CC50 (Vero 76 [5]) of 50 µM.

In the case of O=C(O)c1cnn(-c2nc(NC(C3CC3)C3CC3)c3ncn([C@H]4[C@H](O)[C@H](O)[C@@H]5C[C@@H]54)c3n2)c1, the EC50 (Enterovirus A71 [1]) is reported as > 50 µM, the EC50 (Enterovirus A71 [2]) is reported as > 50 µM and the CC50 (Vero 76 [6]) is reported as > 50 µM. For the same molecule, the CC50 (Vero 76 [5]) was 50 µM.

In the case of O[C@@H]1[C@H](O)[C@@H]2C[C@@H]2[C@H]1n1cnc2c(N[C@@H](CC3CC3)C3CC3)nc(Cl)nc21, the EC50 (Enterovirus A71 [1]) is reported as 18 µM, the EC50 (Enterovirus A71 [2]) is reported as > 7.6 µM and the selectivity ratio (in vitro [4]) is reported as > 2.8. For the same molecule, the CC50 (Vero 76 [6]) was > 50 µM and the CC50 (Vero 76 [5]) was 7.6 µM.

For CSc1nc(N[C@H](C(C)C)C2CC2)c2ncn([C@H]3[C@H](O)[C@H](O)[C@]4(CO)C[C@H]34)c2n1, the EC50 (Enterovirus A71 [2]) was 66 µM, the selectivity ratio (in vitro [3]) was > 1.5 and the CC50 (Vero 76 [6]) was > 100 µM. For the same molecule, the CC50 (Vero 76 [5]) was > 100 µM.

With CC(C)[C@H](Nc1nc(Cl)nc2c1ncn2[C@H]1[C@H](O)[C@H](O)[C@]2(CO)C[C@H]12)C1CC1 the EC50 (Enterovirus A71 [1]) was 12 µM, the EC50 (Enterovirus A71 [2]) was 2.3 µM and the CC50 (Vero 76 [6]) was > 50 µM. For the same molecule, the CC50 (Vero 76 [5]) was > 50 µM.
